# “And” between values parts separate entries of the source, which are not always exact repeats. Equal entries are not always repeated. Where two headings read alike, the source gives them in different places.
# Experiments:
# [1] = test system: C57 mice; details: mouse, in vivo
# [2] = test system: STZ-diabetic rats; experiment: STZ-rat model, tactile stimuli (von Frey filaments); assay type: in vivo
# Experimental: The compound of Example 1 is also tested in an STZ-rat model of neuropathic pain. Briefly, adult female rats are made diabetic by treatment with streptozotocin (STZ), an alkylating neoplastic agent which is particularly toxic to the insulin-producing beta cells of the pancreas. The resulting type-I diabetes in the rats leads to the development of diabetic neuropathy over a 3 to 6-week period. […] Once diabetic neuropathy has been induced, the rats may be treated to determine the analgesic effect of compounds.
# Paw tactile response threshold is a clinical assessment of allodynia to light touch. It can be measured using manual von Frey filaments (as described in Otto et al., Pain, 101:187-92 (2003). A series of von Frey filaments with logarithmically increasing stiffness are used, and the rats' response to each filament is observed. The results are used to calculate a 50%-withdrawal threshold (an amount of stiffness in the filament resulting in a 50% probability of withdrawal of the rat's paw).
# This test is performed using the von Frey filaments as described above.
# [3] = test system: ZFD rats; experiment: ZFD rat model, paw cold response; assay type: in vivo
# Experimental: (§1) Forty (40) adult, male […] rats weighing 225-275 g at the start of the study are used in these experiments, including ten (10) lean, controls and thirty (30) ZFD rats. Animals are maintained in the vivarium at a controlled room temperature between 65 to 85° F. and a relative humidity between 30-70% under illumination by fluorescent lighting on a daily 12-hour light/dark cycle. All animals are maintained 2 per cage with free access to dry food and water.
# Paw cold response threshold: This test replicates the clinical test of cold pain perception threshold. Rats are transferred to a testing cage with a wire mesh bottom and allowed to acclimate. A rigid filament attached to a Peltier thermoelectric cooling system is used to stimulate the plantar surface of the hind paw for 5 seconds. The stimulus is repeated 10 times at 2 to 5 minute intervals and the number of paw withdrawal responses is recorded and converted to a response frequency (%). This paradigm is repeated at various stimulation temperatures.
# (§2) Dosing procedures. Zucker Fatty Diabetic rats are found to develop hyperglycemia over 6-8 weeks. […] Upon confirmation of the presence of painful neuropathy, rats are tested for three measures of hyperalgesia: cold allodynia threshold, tactile hyperalgesia (von Frey filaments), and pressure responses measured by a mechanical von Frey device. All rats are tested in all three assays and all rats receive each of four (4) pre-treatments administered subcutaneously (s.c.) in a vehicle of 10% Trappsol in water. All rats receive treatments in the same order, as follows: vehicle, 1 mg/kg Compound of Ex. 1, 3 mg/kg Compound of Ex. 1, and 10 mg/kg Compound of Ex. 1. Rats receive pre-treatments 30 minutes prior to the start of testing. Hyperalgesia/allodynia measures are recorded from each rat at baseline (0 time), then 1, 2, 3, 4, and 6 h after treatment.
# (§3) After the completion of testing of all rats at all dose/conditions for each assay (cold, tactile, and pressure responses) rats are out-fitted with cannulas for intrathecal (i.t.) application of vehicle or Compound of Ex. 1 (1, 3 or 10 μg) directly to spinal cord. All rats are then re-tested in each of the tree assays at each of the 4 pretreatment conditions/doses.
# [4] = test system: ZFD rats; experiment: ZFD rat model, electronic von Frey (paw pressure); assay type: in vivo; parameters: unit not given here
# Experimental: as §1
# Paw pressure response threshold: This test applies greater force to the plantar hind paw than manual von Frey filaments and may be equated to pressure-induced pain such as that described by diabetic subjects upon standing and walking. Hyperalgesia to this measure develops over several weeks in ZFD rats such that this test can give an assessment of hyperalgesia and drug efficacy that differs from the allodynia measured by manual von Frey filaments. The method is described in detail by Lee-Kubil, Mixcoati-Zecuatl, Jolivalt, & Calcutt, Animal Models of Diabetes-Induced Neuropathic Pain, CURRENT TOPICS IN BEHAVIORAL NEUROSCIENCES 20: 147-170 (2014).
# as §2, §3
# [5] = Control rats, 10 mg/kg s.c., 0 hr
# [6] = Control rats, 10 mg/kg s.c., 1 hr
# [7] = Control rats, 10 mg/kg s.c., 2 hr
# [8] = Control rats, 10 mg/kg s.c., 4 hr
compound,measurement,setting,value
"O=C1CN2c3c(cccc3[C@@H]3CN(CCCOc4ccc(F)cc4)CC[C@@H]32)N1 [Example 1, (6bR,10aS)-8-(3-(4-fluorophenoxy)propyl)-6b,7,8,9,10,10a-hexahydro-1H-pyrido[3′,4′:4,5]pyrrolo[1,2,3-de]quinoxalin-2(3H)-one]",Mean Behavior Rating (0-4),"[1]; po, 3 mg/kg",0.9 and 0.8 and 1.5
same,Mean Behavior Rating (0-4),"[1]; sc, 1 mg/kg",1.0 and 1.9 and 1.1
same,50% withdrawal threshold,"[2]; STZ-diabetic rats, 1 mg/kg s.c., 4 hours (peak)",about 4 g
same,50% withdrawal threshold,"[2]; STZ-diabetic rats, 1 mg/kg s.c., 6 hours",about 3 g
same,50% withdrawal threshold,"[2]; STZ-diabetic rats, 3 mg/kg s.c., 1 hours",about 6 g
same,50% withdrawal threshold,"[2]; STZ-diabetic rats, 3 mg/kg s.c., 2 hours (peak)",~8 g
same,50% withdrawal threshold,"[2]; STZ-diabetic rats, 3 mg/kg s.c., 4 hours",about 3 g
same,50% withdrawal threshold,"[2]; STZ-diabetic rats, 10 mg/kg s.c., 1 hour",about 9 g
same,50% withdrawal threshold,"[2]; STZ-diabetic rats, 10 mg/kg s.c., 2 hours (peak)",about 10 g
same,50% withdrawal threshold,"[2]; STZ-diabetic rats, 10 mg/kg s.c., 6 hours",about 3 g
same,50% withdrawal threshold,"[2]; rat, in vivo, sc, 10 mg/kg",about 7 g
same,Cold Test response frequency,"[3]; Control rats, 10 μg i.t., 0 hr",17%
same,Cold Test response frequency,"[3]; Control rats, 10 μg i.t., 1 hr",11%
same,Cold Test response frequency,"[3]; Control rats, 10 μg i.t., 2 hr",20%
same,Cold Test response frequency,"[3]; Control rats, 10 μg i.t., 4 hr",14%
same,Cold Test response frequency,[3]; [5],16%
same,Cold Test response frequency,[3]; [6],18%
same,Cold Test response frequency,[3]; [7],10%
same,Cold Test response frequency,[3]; [8],10%
same,Cold Test response frequency,"[3]; ZFD rats, 1 μg i.t., 0 hr",93%
same,Cold Test response frequency,"[3]; ZFD rats, 1 μg i.t., 1 hr",90%
same,Cold Test response frequency,"[3]; ZFD rats, 1 μg i.t., 2 hr",83%
same,Cold Test response frequency,"[3]; ZFD rats, 1 μg i.t., 4 hr",83%
same,Cold Test response frequency,"[3]; ZFD rats, 3 μg i.t., 0 hr",77%
same,Cold Test response frequency,"[3]; ZFD rats, 3 μg i.t., 1 hr",37%
same,Cold Test response frequency,"[3]; ZFD rats, 3 μg i.t., 2 hr",27%
same,Cold Test response frequency,"[3]; ZFD rats, 3 μg i.t., 4 hr",70%
same,Cold Test response frequency,"[3]; ZFD rats, 10 μg i.t., 0 hr",93%
same,Cold Test response frequency,"[3]; ZFD rats, 10 μg i.t., 1 hr",33%
same,Cold Test response frequency,"[3]; ZFD rats, 10 μg i.t., 2 hr",33%
same,Cold Test response frequency,"[3]; ZFD rats, 10 μg i.t., 4 hr",77%
same,Cold Test response frequency,"[3]; ZFD rats, 1 mg/kg s.c., 0 hr",88%
same,Cold Test response frequency,"[3]; ZFD rats, 1 mg/kg s.c., 1 hr",96%
same,Cold Test response frequency,"[3]; ZFD rats, 1 mg/kg s.c., 2 hr",94%
same,Cold Test response frequency,"[3]; ZFD rats, 1 mg/kg s.c., 4 hr",86%
same,Cold Test response frequency,"[3]; ZFD rats, 3 mg/kg s.c., 0 hr",88%
same,Cold Test response frequency,"[3]; ZFD rats, 3 mg/kg s.c., 1 hr",32%
same,Cold Test response frequency,"[3]; ZFD rats, 3 mg/kg s.c., 2 hr",26%
same,Cold Test response frequency,"[3]; ZFD rats, 3 mg/kg s.c., 4 hr",90%
same,Cold Test response frequency,"[3]; ZFD rats, 10 mg/kg s.c., 0 hr",90%
same,Cold Test response frequency,"[3]; ZFD rats, 10 mg/kg s.c., 1 hr",28%
same,Cold Test response frequency,"[3]; ZFD rats, 10 mg/kg s.c., 2 hr",16%
same,Cold Test response frequency,"[3]; ZFD rats, 10 mg/kg s.c., 4 hr",48%
same,Electronic von Frey (paw pressure response),"[4]; Control rats, 10 μg i.t., 0 hr",63.68
same,Electronic von Frey (paw pressure response),"[4]; Control rats, 10 μg i.t., 1 hr",60.91
same,Electronic von Frey (paw pressure response),"[4]; Control rats, 10 μg i.t., 2 hr",62.10
same,Electronic von Frey (paw pressure response),"[4]; Control rats, 10 μg i.t., 4 hr",59.56
same,Electronic von Frey (paw pressure response),[4]; [5],58.64
same,Electronic von Frey (paw pressure response),[4]; [6],55.73
same,Electronic von Frey (paw pressure response),[4]; [7],60.74
same,Electronic von Frey (paw pressure response),[4]; [8],62.89
same,Electronic von Frey (paw pressure response),"[4]; ZFD rats, 1 μg i.t., 0 hr",24.76
same,Electronic von Frey (paw pressure response),"[4]; ZFD rats, 1 μg i.t., 1 hr",34.77
same,Electronic von Frey (paw pressure response),"[4]; ZFD rats, 1 μg i.t., 2 hr",30.09
same,Electronic von Frey (paw pressure response),"[4]; ZFD rats, 1 μg i.t., 4 hr",28.19
same,Electronic von Frey (paw pressure response),"[4]; ZFD rats, 3 μg i.t., 0 hr",33.23
same,Electronic von Frey (paw pressure response),"[4]; ZFD rats, 3 μg i.t., 1 hr",53.94
same,Electronic von Frey (paw pressure response),"[4]; ZFD rats, 3 μg i.t., 2 hr",50.17
same,Electronic von Frey (paw pressure response),"[4]; ZFD rats, 3 μg i.t., 4 hr",39.95
same,Electronic von Frey (paw pressure response),"[4]; ZFD rats, 10 μg i.t., 0 hr",24.68
same,Electronic von Frey (paw pressure response),"[4]; ZFD rats, 10 μg i.t., 1 hr",46.37
same,Electronic von Frey (paw pressure response),"[4]; ZFD rats, 10 μg i.t., 2 hr",45.01
same,Electronic von Frey (paw pressure response),"[4]; ZFD rats, 10 μg i.t., 4 hr",32.33
same,Electronic von Frey (paw pressure response),"[4]; ZFD rats, 1 mg/kg s.c., 0 hr",28.36
same,Electronic von Frey (paw pressure response),"[4]; ZFD rats, 1 mg/kg s.c., 1 hr",32.99
same,Electronic von Frey (paw pressure response),"[4]; ZFD rats, 1 mg/kg s.c., 2 hr",27.35
same,Electronic von Frey (paw pressure response),"[4]; ZFD rats, 1 mg/kg s.c., 4 hr",24.67
same,Electronic von Frey (paw pressure response),"[4]; ZFD rats, 3 mg/kg s.c., 0 hr",33.72
same,Electronic von Frey (paw pressure response),"[4]; ZFD rats, 3 mg/kg s.c., 1 hr",54.21
same,Electronic von Frey (paw pressure response),"[4]; ZFD rats, 3 mg/kg s.c., 2 hr",58.41
same,Electronic von Frey (paw pressure response),"[4]; ZFD rats, 3 mg/kg s.c., 4 hr",30.01
same,Electronic von Frey (paw pressure response),"[4]; ZFD rats, 10 mg/kg s.c., 0 hr",22.69
same,Electronic von Frey (paw pressure response),"[4]; ZFD rats, 10 mg/kg s.c., 1 hr",56.02
same,Electronic von Frey (paw pressure response),"[4]; ZFD rats, 10 mg/kg s.c., 2 hr",58.15
same,Electronic von Frey (paw pressure response),"[4]; ZFD rats, 10 mg/kg s.c., 4 hr",39.32
